Reference: PubChem BioAssay AID1963980 (Molecular Pharmacology Branch, DTP, NCI, 2024)

Tested on: 475296-252-R-J1-PDC spheroid viability
Assay: Anticancer human tumor 475296-252-R-J1-PDC patient-derived rectal carcinoma cell line growth inhibition [PI3K]
Conditions: spheroids with HUVEC and MSC; for IC50: curve of first compound; for viability, T/C: stronger effect = lower value
Method in brief: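 Viability of mixed-cell spheroids was determined after exposure to pairwise combinations, one partner being inavolisib, alpelisib, duvelisib or copanlisib. Highest tested concentration matched clinical Cmax where known and 10 microM where not, descending in half-log steps.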

[1] = second compound 0.00316 µM, first compound 0.0316 µM
[2] = second compound 0.00316 µM, first compound 0.1 µM
[3] = second compound 0.00316 µM, first compound 0.316 µM
[4] = second compound 0.00316 µM, first compound 1 µM
[5] = second compound 0.00316 µM, first compound 3.16 µM
[6] = second compound 0.00316 µM, first compound 10 µM
[7] = second compound 0.01 µM, first compound 0.0316 µM
[8] = second compound 0.01 µM, first compound 0.1 µM
[9] = second compound 0.01 µM, first compound 0.316 µM
[10] = second compound 0.01 µM, first compound 1 µM
[11] = second compound 0.01 µM, first compound 3.16 µM
[12] = second compound 0.01 µM, first compound 10 µM
[13] = second compound 0.0316 µM, first compound 0.0316 µM
[14] = second compound 0.0316 µM, first compound 0.1 µM
[15] = second compound 0.0316 µM, first compound 0.316 µM
[16] = second compound 0.0316 µM, first compound 1 µM
[17] = second compound 0.0316 µM, first compound 3.16 µM
[18] = second compound 0.0316 µM, first compound 10 µM
[19] = second compound 0.1 µM, first compound 0.0316 µM
[20] = second compound 0.1 µM, first compound 0.1 µM
[21] = second compound 0.1 µM, first compound 0.316 µM
[22] = second compound 0.1 µM, first compound 1 µM
[23] = second compound 0.1 µM, first compound 3.16 µM
[24] = second compound 0.1 µM, first compound 10 µM
[25] = second compound 0.316 µM, first compound 0.0316 µM
[26] = second compound 0.316 µM, first compound 0.1 µM
[27] = second compound 0.316 µM, first compound 0.316 µM
[28] = second compound 0.316 µM, first compound 1 µM
[29] = second compound 0.316 µM, first compound 3.16 µM
[30] = second compound 0.316 µM, first compound 10 µM
[31] = second compound 1 µM, first compound 0.0316 µM
[32] = second compound 1 µM, first compound 0.1 µM
[33] = second compound 1 µM, first compound 0.316 µM
[34] = second compound 1 µM, first compound 1 µM
[35] = second compound 1 µM, first compound 3.16 µM
[36] = second compound 1 µM, first compound 10 µM
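Note: spheroids exposed to agents for seven days before readout.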

## C#Cc1c(F)ccc2cc(O)cc(-c3ncc4c(N5CC6CCC(C5)N6)nc(OCC56CCCN5CC(F)C6)nc4c3F)c12 (stereo not drawn) + COc1c(OCCCN2CCOCC2)ccc2c3n(c(=NC(=O)c4cnc(N)nc4)nc12)CCN3
Second compound 0.00316 µM
  IC50: 7.99 µM
Second compound 0.01 µM
  IC50: 2.07 µM
Second compound 0.0316 µM
  IC50: 0.875 µM
Second compound 0.1 µM
  IC50: 0.228 µM
Second compound 0.316 µM
  IC50: 0.134 µM
Second compound 1 µM
  IC50: < 0.0316 µM
[1]
  viability, T/C: 85.9%
[2]
  viability, T/C: 87.5%
[3]
  viability, T/C: 79.7%
[4]
  viability, T/C: 75.3%
[5]
  viability, T/C: 59.2%
[6]
  viability, T/C: 47.8%
[7]
  viability, T/C: 89.5%
[8]
  viability, T/C: 90.8%
[9]
  viability, T/C: 68%
[10]
  viability, T/C: 57.2%
[11]
  viability, T/C: 48.9%
[12]
  viability, T/C: 39.9%
[13]
  viability, T/C: 80.6%
[14]
  viability, T/C: 76.4%
[15]
  viability, T/C: 65.4%
[16]
  viability, T/C: 46.1%
[17]
  viability, T/C: 31.1%
[18]
  viability, T/C: 14.3%
[19]
  viability, T/C: 67%
[20]
  viability, T/C: 68.9%
[21]
  viability, T/C: 40.7%
[22]
  viability, T/C: 23%
[23]
  viability, T/C: 8.13%
[24]
  viability, T/C: 3.98%
[25]
  viability, T/C: 64.5%
[26]
  viability, T/C: 57.4%
[27]
  viability, T/C: 28.3%
[28]
  viability, T/C: 7.5%
[29]
  viability, T/C: 3.69%
[30]
  viability, T/C: 2.51%
[31]
  viability, T/C: 45.9%
[32]
  viability, T/C: 34.2%
[33]
  viability, T/C: 21.3%
[34]
  viability, T/C: 6.91%
[35]
  viability, T/C: 5.05%
[36]
  viability, T/C: 4.55%

## C=CC(=O)N1CCN(c2nc(=O)n(-c3c(C)ccnc3C(C)C)c3nc(-c4c(O)cccc4F)c(F)cc23)C(C)C1 (stereo not drawn) + COc1c(OCCCN2CCOCC2)ccc2c3n(c(=NC(=O)c4cnc(N)nc4)nc12)CCN3
Second compound 0.00316 µM
  IC50: > 10 µM
Second compound 0.01 µM
  IC50: > 10 µM
Second compound 0.0316 µM
  IC50: > 10 µM
Second compound 0.1 µM
  IC50: > 10 µM
Second compound 0.316 µM
  IC50: > 10 µM
Second compound 1 µM
  IC50: > 10 µM
[1]
  viability, T/C: 102%
[2]
  viability, T/C: 101%
[3]
  viability, T/C: 101%
[4]
  viability, T/C: 99.4%
[5]
  viability, T/C: 110%
[6]
  viability, T/C: 106%
[7]
  viability, T/C: 94.3%
[8]
  viability, T/C: 99.2%
[9]
  viability, T/C: 93.8%
[10]
  viability, T/C: 105%
[11]
  viability, T/C: 106%
[12]
  viability, T/C: 98.1%
[13]
  viability, T/C: 94.4%
[14]
  viability, T/C: 91.1%
[15]
  viability, T/C: 91.2%
[16]
  viability, T/C: 98.7%
[17]
  viability, T/C: 91.4%
[18]
  viability, T/C: 108%
[19]
  viability, T/C: 91.6%
[20]
  viability, T/C: 85.5%
[21]
  viability, T/C: 84%
[22]
  viability, T/C: 97.8%
[23]
  viability, T/C: 86%
[24]
  viability, T/C: 87.1%
[25]
  viability, T/C: 75.7%
[26]
  viability, T/C: 78.3%
[27]
  viability, T/C: 64.9%
[28]
  viability, T/C: 83.6%
[29]
  viability, T/C: 77.5%
[30]
  viability, T/C: 81%
[31]
  viability, T/C: 58.2%
[32]
  viability, T/C: 65.7%
[33]
  viability, T/C: 63.7%
[34]
  viability, T/C: 63.9%
[35]
  viability, T/C: 58.1%
[36]
  viability, T/C: 69.8%

## CC(Cn1ccc(-c2ccc(C#N)c(Cl)c2)n1)NC(=O)c1cc(C(C)O)[nH]n1 (stereo not drawn) + COc1c(OCCCN2CCOCC2)ccc2c3n(c(=NC(=O)c4cnc(N)nc4)nc12)CCN3
Second compound 0.00316 µM
  IC50: > 10 µM
Second compound 0.01 µM
  IC50: > 10 µM
Second compound 0.0316 µM
  IC50: > 10 µM
Second compound 0.1 µM
  IC50: > 10 µM
Second compound 0.316 µM
  IC50: > 10 µM
Second compound 1 µM
  IC50: > 10 µM
[1]
  viability, T/C: 106%
[2]
  viability, T/C: 99.3%
[3]
  viability, T/C: 103%
[4]
  viability, T/C: 91.7%
[5]
  viability, T/C: 107%
[6]
  viability, T/C: 94.7%
[7]
  viability, T/C: 102%
[8]
  viability, T/C: 101%
[9]
  viability, T/C: 111%
[10]
  viability, T/C: 95.8%
[11]
  viability, T/C: 102%
[12]
  viability, T/C: 87.7%
[13]
  viability, T/C: 97%
[14]
  viability, T/C: 87.6%
[15]
  viability, T/C: 89.7%
[16]
  viability, T/C: 81.2%
[17]
  viability, T/C: 90.6%
[18]
  viability, T/C: 88.2%
[19]
  viability, T/C: 84.6%
[20]
  viability, T/C: 88.7%
[21]
  viability, T/C: 77.8%
[22]
  viability, T/C: 95.3%
[23]
  viability, T/C: 91.6%
[24]
  viability, T/C: 83%
[25]
  viability, T/C: 73.8%
[26]
  viability, T/C: 74%
[27]
  viability, T/C: 73.4%
[28]
  viability, T/C: 71.7%
[29]
  viability, T/C: 79.1%
[30]
  viability, T/C: 67.3%
[31]
  viability, T/C: 65.2%
[32]
  viability, T/C: 68.7%
[33]
  viability, T/C: 75.8%
[34]
  viability, T/C: 62.2%
[35]
  viability, T/C: 71%
[36]
  viability, T/C: 64%

## CC1(C)CCC(Nc2ncc(C(F)(F)F)c(-c3c[nH]c4c(P(C)(C)=O)c(C#N)ccc34)n2)CN1 (stereo not drawn) + COc1c(OCCCN2CCOCC2)ccc2c3n(c(=NC(=O)c4cnc(N)nc4)nc12)CCN3
Second compound 0.00316 µM
  IC50: > 10 µM
Second compound 0.01 µM
  IC50: > 10 µM
Second compound 0.0316 µM
  IC50: > 10 µM
Second compound 0.1 µM
  IC50: 7.77 µM
Second compound 0.316 µM
  IC50: 5.48 µM
Second compound 1 µM
  IC50: 1.4 µM
[1]
  viability, T/C: 91.7%
[2]
  viability, T/C: 93.5%
[3]
  viability, T/C: 115%
[4]
  viability, T/C: 130%
[5]
  viability, T/C: 147%
[6]
  viability, T/C: 63.2%
[7]
  viability, T/C: 101%
[8]
  viability, T/C: 96%
[9]
  viability, T/C: 112%
[10]
  viability, T/C: 119%
[11]
  viability, T/C: 140%
[12]
  viability, T/C: 52.2%
[13]
  viability, T/C: 85.3%
[14]
  viability, T/C: 86.7%
[15]
  viability, T/C: 95%
[16]
  viability, T/C: 103%
[17]
  viability, T/C: 125%
[18]
  viability, T/C: 56.1%
[19]
  viability, T/C: 79.9%
[20]
  viability, T/C: 85.4%
[21]
  viability, T/C: 91.7%
[22]
  viability, T/C: 82%
[23]
  viability, T/C: 98.5%
[24]
  viability, T/C: 39.4%
[25]
  viability, T/C: 69.1%
[26]
  viability, T/C: 76.8%
[27]
  viability, T/C: 72%
[28]
  viability, T/C: 78.1%
[29]
  viability, T/C: 74.3%
[30]
  viability, T/C: 23.7%
[31]
  viability, T/C: 57.4%
[32]
  viability, T/C: 50.5%
[33]
  viability, T/C: 49.8%
[34]
  viability, T/C: 54.9%
[35]
  viability, T/C: 44.2%
[36]
  viability, T/C: 9.59%
